Experimental data from ChEMBL document CHEMBL5233251, “Epoxide containing molecules: A good or a bad drug design approach” (Eur J Med Chem, 2020).
pEC50, pIC50: −log10 of the molar value. Converted amounts (≈) assume the structure as drawn. Blank lines part the entries; values can stand above or below the molecule they belong to.

Experiments:
HEp-2 = assay: Cytotoxicity against human HEp-2 cells assessed as inhibition of cell growth; format: functional; conditions: read-out: ED50 (the source's name)
PC-3 = assay: Cytotoxicity against human PC-3 cells assessed as inhibition of cell growth incubated for 48 hrs by SRB assay; format: functional, cell-based; conditions: PC-3, 48 h
MCF7 [1] = assay: Cytotoxicity against human MCF7 cells assessed as inhibition of cell growth incubated for 48 hrs by SRB assay; format: functional, cell-based; conditions: MCF7, 48 h
MDA-MB-231 = assay: Cytotoxicity against human MDA-MB-231 cells assessed as inhibition of cell growth incubated for 48 hrs by SRB assay; format: functional, cell-based; conditions: MDA-MB-231, 48 h
[2] = Induction of apoptosis in human multiple myeloma cell; format: functional, cell-based
DU-145 = assay: Antiproliferative activity against human DU-145 cells assessed as reduction in cell viability incubated for 48 hrs by CytoX cell viability assay; format: functional, cell-based; conditions: DU-145, 48 h
K562 = assay: Antiproliferative activity against human K562 cells assessed as reduction in cell viability incubated for 48 hrs by CytoX cell viability assay; format: functional, cell-based; conditions: K562, 48 h
MCF7 [3] = assay: Antiproliferative activity against human MCF7 cells assessed as reduction in cell viability incubated for 48 hrs by CytoX cell viability assay; format: functional, cell-based; conditions: MCF7, 48 h
HCT-15 = assay: Antiproliferative activity against human HCT-15 cells assessed as reduction in cell viability incubated for 48 hrs by CytoX cell viability assay; format: functional, cell-based; conditions: HCT-15, 48 h
HeLa = assay: Antiproliferative activity against human HeLa cells assessed as reduction in cell viability incubated for 48 hrs by CytoX cell viability assay; format: functional, cell-based
Hyalomma lusitanicum = assay: Anti-insecticidal activity against Hyalomma lusitanicum Koch larvae assessed as inhibition of larval growth; format: functional; conditions: for LC50: Hyalomma lusitanicum, read-out: LD50 (the source's name)
A2780 = assay: Cytotoxicity against human A2780 cells assessed as inhibition of cell growth incubated for 96 hrs by SRB assay; format: toxicity, cell-based; conditions: A2780, 96 h
Plasmodium falciparum [4] = assay: Antimalarial activity against chloroquine-sensitive Plasmodium falciparum D10 incubated for 48 hrs; format: functional, organism-based; conditions: D10, 48 h
Plasmodium falciparum [5] = assay: Antimalarial activity against Sulfadoxine-sensitive Plasmodium falciparum HB3; format: functional, organism-based
Plasmodium falciparum [6] = assay: Antimalarial activity against Sulfadoxine-sensitive Plasmodium falciparum D6; format: functional, organism-based
Plasmodium falciparum [7] = assay: Antimalarial activity against Sulfadoxine-sensitive Plasmodium falciparum FCR3; format: functional, organism-based
Plasmodium falciparum [8] = assay: Antimalarial activity against […] incubated for 48 hrs; format: functional, organism-based; conditions: K1, 48 h
Plasmodium falciparum [9] = assay: Antimalarial activity against Sulfadoxine-resistant Plasmodium falciparum 3D7; format: functional, organism-based
Plasmodium falciparum [10] = assay: Antimalarial activity against Sulfadoxine-resistant Plasmodium falciparum W2; format: functional, organism-based
HL-60 = assay: Antiproliferative activity against human HL-60 cells assessed as inhibition of cell growth incubated for 72 hrs by MTT assay; format: functional, cell-based; conditions: HL-60, 72 h
Leishmania donovani = assay: Antileishmanial activity against Leishmania donovani promastigotes; format: functional, organism-based
OVCAR-8 = assay: Antiproliferative activity against human OVCAR-8 cells assessed as inhibition of cell growth incubated for 72 hrs by MTT assay; format: functional, cell-based; conditions: OVCAR-8, 72 h
SF-295 = assay: Antiproliferative activity against human SF-295 cells assessed as inhibition of cell growth incubated for 72 hrs by MTT assay; format: functional, cell-based; conditions: SF-295, 72 h
HCT-116 = assay: Antiproliferative activity against human HCT-116 cells assessed as inhibition of cell growth incubated for 72 hrs by MTT assay; format: functional, cell-based; conditions: HCT-116, 72 h

SMILES: C=C1C(=O)O[C@@H]2C[C@@H](C)[C@]34O[C@H]3CC(=O)[C@@]4(C)[C@@H](O)[C@H]12
- EC50 (HEp-2): 0.11 µg/mL (≈ 0.395 µM)

SMILES: C[C@]12CC[C@H]3[C@@H]([C@@H]4O[C@@H]4C4=CC(=O)C=C[C@@]43C)[C@@H]1CC(=O)OC2
- pIC50 (PC-3): < 4.00
- pIC50 (MCF7 [1]): < 4.00
- pIC50 (MDA-MB-231): < 4.00

- pEC50 [2]: 5.46
SMILES: COc1ccc2c(c1)C(=O)C1OC1(C)C2=O (configuration not stated)

SMILES: Cc1cc(=O)c2c(OC[C@@H]3CO3)cc(OC[C@@H]3CO3)cc2o1
- pIC50 (DU-145): 4.61
- pIC50 (K562): 4.71
- pIC50 (MCF7 [3]): 4.34
- pIC50 (HCT-15): 4.40
- pIC50 (HeLa): 4.66

SMILES: Cc1cc(=O)c2c(OC[C@@H]3CO3)cc(OC[C@H]3CO3)cc2o1
- pIC50 (DU-145): 4.69
- pIC50 (K562): 5.83
- pIC50 (MCF7 [3]): 4.86
- pIC50 (HCT-15): 4.92
- pIC50 (HeLa): 4.96

SMILES: C/C1=C\CC2(OC2(C)C)C(=O)C/C(C)=C/CC1 (configuration not stated)
- LD90 (Hyalomma lusitanicum): 2.43 mg/mL
- LC50 (Hyalomma lusitanicum): 1210 µg/mL (≈ 5160 µM)

SMILES: CC(C)=C1C/C=C(\C)CC[C@H]2O[C@@]2(C)CC1=O
- LD90 (Hyalomma lusitanicum): 4.1 mg/mL
- LC50 (Hyalomma lusitanicum): 2700 µg/mL (≈ 11500 µM)

SMILES: CC(C)=C1C[C@H]2O[C@@]2(C)CC/C=C(\C)CC1=O
- LD90 (Hyalomma lusitanicum): 3.45 mg/mL
- LC50 (Hyalomma lusitanicum): 1470 µg/mL (≈ 6270 µM)

SMILES: C[C@@H]1C[C@H]2OC(=O)C(CN(C)C)[C@H]2[C@H](O)[C@]2(C)C(=O)C3OC3[C@@H]12 (some centres not stated)
- EC50 (HEp-2): 0.11 µg/mL (≈ 0.34 µM)

SMILES: C=C1C(=O)O[C@@H]2[C@H]3C(C)=CC[C@@]34O[C@@]4(C)CC[C@@H]12 [ARGLABIN]
- pIC50 (A2780): 4.90

SMILES: CC1C(=O)O[C@@H]2C[C@@H](C)[C@]34O[C@H]3CC(=O)[C@@]4(C)[C@@H](O)[C@H]12 (some centres not stated)
- EC50 (HEp-2): 0.11 µg/mL (≈ 0.392 µM)

SMILES: Cc1cc(=O)c2c(OC[C@H]3CO3)cc(OC[C@H]3CO3)cc2o1
- pIC50 (DU-145): 4.81
- pIC50 (K562): 5.10
- pIC50 (MCF7 [3]): 3.66
- pIC50 (HCT-15): 3.64
- pIC50 (HeLa): 4.94

SMILES: CC(C)=C1C/C=C(\C)CC/C=C(\C)CC1=O
- LD90 (Hyalomma lusitanicum): 3.13 mg/mL
- LC50 (Hyalomma lusitanicum): 1080 µg/mL (≈ 4950 µM)

SMILES: C=C1C(=O)O[C@@H]2C[C@@H](C)[C@@H]3C4OC4C(=O)[C@@]3(C)[C@@H](O)[C@H]12 (some centres not stated)
- EC50 (HEp-2): 0.11 µg/mL (≈ 0.395 µM)

SMILES: Cc1cc(=O)c2c(OCC3CO3)cc(OCC3CO3)cc2o1 (configuration not stated)
- pIC50 (DU-145): 5.14
- pIC50 (K562): 5.20
- pIC50 (MCF7 [3]): 5.19
- pIC50 (HCT-15): 4.92
- pIC50 (HeLa): 5.27

SMILES: Fc1ccc([C@]23CC[C@](c4ccc(F)cc4)(OO2)[C@H]2O[C@H]23)cc1
- pIC50 (Plasmodium falciparum [4]): 7.10
- pIC50 (Plasmodium falciparum [5]): 8.00
- pIC50 (Plasmodium falciparum [6]): 8.00
- pIC50 (Plasmodium falciparum [7]): 8.00
- pIC50 (Plasmodium falciparum [8]): 7.10
- pIC50 (Plasmodium falciparum [9]): < 5.00
- pIC50 (Plasmodium falciparum [10]): < 5.00

- pIC50 (HL-60): 5.01
- IC50 (Leishmania donovani): 64.6 µg/mL (≈ 389 µM)
- pIC50 (OVCAR-8): 4.63
- pIC50 (HCT-116): 4.79
SMILES: C=C(C)[C@H]1CCC2(C=O)OC2C1 (some centres not stated)
- pIC50 (SF-295): 4.66

SMILES: C[C@@H]1C[C@H]2OC(=O)C(C3CO3)[C@H]2[C@H](O)[C@]2(C)C(=O)C3OC3[C@@H]12 (some centres not stated)
- EC50 (HEp-2): 0.11 µg/mL (≈ 0.357 µM)

SMILES: CC(C)[C@@]12CC[C@@](C)(OO1)[C@@H]1O[C@@H]12
- pIC50 (Plasmodium falciparum [4]): 7.10
- pIC50 (Plasmodium falciparum [5]): 8.00
- pIC50 (Plasmodium falciparum [6]): 8.00
- pIC50 (Plasmodium falciparum [7]): 8.00
- pIC50 (Plasmodium falciparum [8]): 7.10
- pIC50 (Plasmodium falciparum [9]): < 5.00
- pIC50 (Plasmodium falciparum [10]): < 5.00
